Earlier results, collected in US20250325531A1, “TREATMENT OF SYSTOLIC DYSFUNCTION” (MyoKardia, Inc., priority 2024, published 2025).

Test system: healthy volunteers / HFrEF
Settings: high doses; correlated with increase in SET; cited from earlier work

Structure (SMILES): COC(=O)N1CCN(Cc2cccc(NC(=O)Nc3ccc(C)nc3)c2F)CC1 [omecamtiv mecarbil]
- ischemia in healthy volunteers: resulted in ischemia
